Key:
MOZ-KAT6A [1] = biological target: T1, MOZ-KAT6A (Homo sapiens, UniProt Q92794, A567V); test: Revised Acetyltransferase Biochemical Assay, KAT6A; settings: Table 8 (MOZ-KAT6A), 1 μM Acetyl coenzyme A
T1 construct: encoding amino acid residues 507 to 778 (Uniprot Q92794-1) of human KAT6A; made in house; host or cells: E. coli BL21 DE3

MOF-KAT8 = biological target: T2, MOF-KAT8 (Homo sapiens, UniProt Q9H7Z6); test: Revised Acetyltransferase Biochemical Assay, KAT8
T2 sequence (Q9H7Z6 177-447): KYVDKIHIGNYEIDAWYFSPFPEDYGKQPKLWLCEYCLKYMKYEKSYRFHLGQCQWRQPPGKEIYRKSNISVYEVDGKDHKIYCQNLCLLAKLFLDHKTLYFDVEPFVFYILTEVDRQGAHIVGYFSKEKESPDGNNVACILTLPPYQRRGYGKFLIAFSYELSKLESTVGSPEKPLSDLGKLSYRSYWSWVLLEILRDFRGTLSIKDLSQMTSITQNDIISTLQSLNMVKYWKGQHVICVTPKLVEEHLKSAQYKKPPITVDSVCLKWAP

HBO-KAT7 [2] = biological target: T3, HBO-KAT7 (Homo sapiens, UniProt O95251); test: Revised Acetyltransferase Biochemical Assay, KAT7; settings: Table 9 (HBO-KAT7), 1 μM Acetyl coenzyme A
T3 construct: encoding amino acid residues 325 to 611 (Uniprot 095251-1) of human KAT7; made in house; host or cells: E. coli BL21 DE3 RIL
T3 sequence (O95251 with tags, fused parts or gaps): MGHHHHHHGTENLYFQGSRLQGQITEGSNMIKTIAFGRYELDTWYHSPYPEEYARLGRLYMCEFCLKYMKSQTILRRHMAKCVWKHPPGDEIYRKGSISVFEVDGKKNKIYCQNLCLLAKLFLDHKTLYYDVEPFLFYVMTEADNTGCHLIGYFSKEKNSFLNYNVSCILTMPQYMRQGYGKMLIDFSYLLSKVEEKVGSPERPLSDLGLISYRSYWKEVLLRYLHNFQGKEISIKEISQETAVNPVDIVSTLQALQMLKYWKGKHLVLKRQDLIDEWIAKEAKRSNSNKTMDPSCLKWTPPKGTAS

TIP60-KAT5 [3] = biological target: T4, TIP60-KAT5 (Homo sapiens, UniProt Q92993); test: Revised Acetyltransferase Biochemical Assay, KAT5; settings: 10 nM KAT5, 1 μM AcCoA, 100 nM histone H4, 90 min
T4 construct: encoding amino acid residues 2 to 461 (Uniprot Q92993-2) of human KAT5 isoform; made in house; host or cells: E. coli BL21 DE3
T4 sequence (Q92993 2-461 isoform Q92993-2): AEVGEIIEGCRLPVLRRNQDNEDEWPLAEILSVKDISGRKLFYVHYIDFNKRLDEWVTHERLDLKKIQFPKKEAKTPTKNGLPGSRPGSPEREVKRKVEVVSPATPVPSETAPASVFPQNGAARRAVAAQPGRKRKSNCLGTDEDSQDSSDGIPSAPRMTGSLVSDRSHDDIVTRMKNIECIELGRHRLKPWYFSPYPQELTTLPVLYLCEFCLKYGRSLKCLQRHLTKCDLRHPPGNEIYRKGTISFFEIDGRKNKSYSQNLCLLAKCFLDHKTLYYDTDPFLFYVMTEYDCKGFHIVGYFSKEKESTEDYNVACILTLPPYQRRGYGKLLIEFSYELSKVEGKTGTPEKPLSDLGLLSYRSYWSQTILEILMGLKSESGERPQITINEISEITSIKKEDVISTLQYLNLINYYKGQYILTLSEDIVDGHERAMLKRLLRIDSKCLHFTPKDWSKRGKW

TIP60-KAT5 [4] = biological target: T4, TIP60-KAT5; test: Acetyltransferase biochemical assay (AlphaScreen), KAT5; settings: Table 1 (TIP60-KAT5); 0.4 μM Acetyl coenzyme A, histone H4, 10 nM enzyme
MOZ-KAT6A [5] = biological target: T1, MOZ-KAT6A; test: Acetyltransferase biochemical assay (AlphaScreen), KAT6A; settings: Table 2 (MOZ-KAT6A); 10 μM Acetyl coenzyme A, histone H3.1, 5 nM enzyme
HBO-KAT7 [6] = biological target: T3, HBO-KAT7; test: Acetyltransferase biochemical assay (AlphaScreen), KAT7; settings: Table 3 (HBO-KAT7); 0.4 μM Acetyl coenzyme A, histone H3.1, 40 nM enzyme

T1 sequence (Q92794 507-778 A567V limits assumed): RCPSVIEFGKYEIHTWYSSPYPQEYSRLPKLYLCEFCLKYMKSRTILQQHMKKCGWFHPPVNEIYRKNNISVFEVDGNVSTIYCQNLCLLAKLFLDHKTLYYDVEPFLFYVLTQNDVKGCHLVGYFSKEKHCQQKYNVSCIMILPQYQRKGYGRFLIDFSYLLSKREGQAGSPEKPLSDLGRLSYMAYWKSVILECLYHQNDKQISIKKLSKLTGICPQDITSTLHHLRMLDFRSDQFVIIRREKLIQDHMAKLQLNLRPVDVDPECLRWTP

Row | SMILES | IC50 (MOZ-KAT6A [1]) [µM] | IC50 (MOF-KAT8) [µM] | IC50 (HBO-KAT7 [2]) [µM] | IC50 (TIP60-KAT5 [3]) [µM] | IC50 (TIP60-KAT5 [4]) [µM] | IC50 (MOZ-KAT6A [5]) [µM] | IC50 (HBO-KAT7 [6]) [µM]
1 | O=C(NCC(CO)c1ccccc1)C1=Nc2ccccc2S(=O)(=O)N1 (stereo not shown) [Example 2, N-(3-Hydroxy-2-phenylpropyl)-2H-benzo[e][1,2,4]thiadiazine-3-carboxamide 1,1-dioxide] | 5.14 | > 125 | 28 | 60.7 | > 125 | 38.1 | –
2 | O=C(NCC(CCO)c1ccccc1)C1=Nc2ccccc2S(=O)(=O)N1 (stereo not shown) [Example 3, N-(4-Hydroxy-2-phenylbutyl)-2H-benzo[e][1,2,4]thiadiazine-3-carboxamide 1,1-dioxide] | 4.95 | 12.2 | 49.9 | 99.6 | 96.5 | 7.66 | –
3 | COc1ccc2c(c1)S(=O)(=O)NC(C(=O)NCC(c1ccccc1)c1ccccc1)=N2 [Example 19, N-(2,2-diphenylethyl)-7-methoxy-2H-benzo[e][1,2,4]thiadiazine-3-carboxamide 1,1-dioxide] | 0.27 | > 125 | 1 | 14.6 | 33.2 | 1.35 | –
4 | COC(=O)c1ccc2c(c1)S(=O)(=O)NC(C(=O)NCC(c1ccccc1)c1ccccc1)=N2 [Example 20] | 0.49 | 62.8 | 1.25 | 13.8 | 29.5 | 6.05 | –
5 | O=C(NCCc1ccccc1O)C1=Nc2ccccc2S(=O)(=O)N1 [Example 29, N-(2-Hydroxyphenethyl)-2H-benzo[e][1,2,4]thiadiazine-3-carboxamide 1,1-dioxide] | – | – | – | – | > 125 | 28.6 | 84.4
6 | O=C(NCCc1ccccc1I)C1=Nc2ccccc2S(=O)(=O)N1 [Example 31, N-(2-Iodophenethyl)-2H-benzo[e][1,2,4]thiadiazine-3-carboxamide 1,1-dioxide] | – | – | – | – | 15.1 | 8.23 | 5.84
7 | O=C(NCCc1ccccc1-c1cccnc1)C1=Nc2ccccc2S(=O)(=O)N1 [Example 34, N-(2-(Pyridin-3-yl)phenethyl)-2H-benzo[e][1,2,4]thiadiazine-3-carboxamide 1,1-dioxide] | 5.78 | – | 11.5 | 70.3 | > 125 | 51.6 | 60.3
8 | N#Cc1ccccc1CCNC(=O)C1=Nc2ccccc2S(=O)(=O)N1 [Example 35, N-(2-Cyanophenethyl)-2H-benzo[e][1,2,4]thiadiazine-3-carboxamide 1,1-dioxide] | – | – | – | – | > 125 | 59.9 | 31.6
9 | O=C(NCC(c1ccccc1)n1cccc1)C1=Nc2ccccc2S(=O)(=O)N1 (stereo not shown) [Example 54, N-(2-phenyl-2-(1H-pyrrol-1-yl)ethyl)-2H-benzo[e][1,2,4]thiadiazine-3-carboxamide 1,1-dioxide] | – | – | – | – | 57.9 | 8.87 | 4.01
10 | O=C(NCC(c1ccccc1F)n1cccc1)C1=Nc2ccccc2S(=O)(=O)N1 (stereo not shown) [Example 55, N-(2-(2-fluorophenyl)-2-(1H-pyrrol-1-yl)ethyl)-2H-benzo[e][1,2,4]thiadiazine-3-carboxamide 1,1-dioxide] | – | – | – | – | 36.5 | 5.66 | 4.51
11 | O=C(NCC(c1ccccc1)c1nc(CO)no1)C1=Nc2ccc(I)cc2S(=O)(=O)N1 (stereo not shown) [Example 59, N-(2-(3-(hydroxymethyl)-1,2,4-oxadiazol-5-yl)-2-phenylethyl)-7-iodo-2H-benzo[e][1,2,4]thiadiazine-3-carboxamide 1,1-dioxide] | 0.032 | 26.8 | 0.403 | 0.721 | – | – | –
12 | O=C(NCCc1ccccn1)C1=Nc2ccc(Br)cc2S(=O)(=O)N1 [Example 79] | – | – | – | – | 87.8 | 35.4 | 29.5
13 | O=C(NCCc1cccnc1)C1=Nc2ccc(Br)cc2S(=O)(=O)N1 [Example 80] | – | – | – | – | > 125 | 58.8 | 104
14 | O=C(NCC(c1ccccc1)c1ncco1)C1=Nc2cnccc2S(=O)(=O)N1 (stereo not shown) [Example 98] | – | – | – | – | > 125 | 36.1 | 68.6
15 | O=C(NCC(c1ccccc1)c1ncco1)C1=Nc2ncccc2S(=O)(=O)N1 (stereo not shown) [Example 99] | – | – | – | – | > 125 | 15.8 | 9.16
16 | Nc1ccc(CCNC(=O)C2=Nc3ccc(I)cc3S(=O)(=O)N2)cc1 [Example 100] | – | – | – | – | 40.5 | 41.7 | 112

Row | SMILES | IC50 (MOZ-KAT6A [1]) [µM] | IC50 (MOF-KAT8) [µM] | IC50 (HBO-KAT7 [2]) [µM] | IC50 (TIP60-KAT5 [3]) [µM] | IC50 (TIP60-KAT5 [4]) [µM] | IC50 (MOZ-KAT6A [5]) [µM] | IC50 (HBO-KAT7 [6]) [µM]
17 | O=C(NCCc1cccc(O)c1)C1=Nc2ccc(I)cc2S(=O)(=O)N1 [Example 102] | – | – | – | – | 27.1 | 10.6 | 60.2
18 | O=C(NCCc1ccccn1)C1=Nc2ccc(I)cc2S(=O)(=O)N1 [Example 107] | – | – | – | – | 20.8 | 12 | 23.3
19 | O=C(NCCc1cccnc1)C1=Nc2ccc(I)cc2S(=O)(=O)N1 [Example 108] | – | – | – | – | 77.7 | 11.6 | 50.1
20 | COC(=O)C(CNC(=O)C1=Nc2ccccc2S(=O)(=O)N1)c1ccccc1 (stereo not shown) [Example 112, Methyl 3-(1,1-dioxido-2H-benzo[e][1,2,4]thiadiazine-3-carboxamido)-2-phenylpropanoate] | – | – | – | – | 18.5 | 4.58 | 4.11
21 | O=C(NCCc1ccccc1C(F)(F)F)C1=Nc2ccc(I)cc2S(=O)(=O)N1 [Example 118] | 0.046 | > 125 | 0.412 | 0.208 | 2.29 | – | 3.02
22 | O=C(NCC(c1ccccc1)c1ncco1)C1=Nc2ccc(C(F)(F)F)cc2S(=O)(=O)N1 (stereo not shown) [Example 120] | 0.017 | 41.5 | 0.14 | 0.224 | 1.24 | – | 3.52
23 | COC(=O)NC(CNC(=O)C1=Nc2ccccc2S(=O)(=O)N1)c1ccccc1 (stereo not shown) [Example 129] | 0.25 | > 125 | 24.8 | 58.3 | > 125 | – | > 125
24 | O=C(NCC(c1ccccc1)c1ncco1)C1=Nc2ccc(-c3cscn3)cc2S(=O)(=O)N1 (stereo not shown) [Example 135] | 0.047 | – | 0.419 | 0.646 | 3.13 | 0.168 | 2.53
25 | CS(=O)(=O)Nc1ccc2c(c1)S(=O)(=O)NC(C(=O)NCC(c1ccccc1)c1ncco1)=N2 (stereo not shown) [Example 153, 7-(Methylsulfonamido)-N-(2-(oxazol-2-yl)-2-phenylethyl)-2H-benzo[e][1,2,4]thiadiazine-3-carboxamide 1,1-dioxide] | 0.054 | 20.1 | 0.672 | 3.37 | 38.7 | – | 3.41
26 | O=C(NCC(c1ncco1)c1ccccc1CO)C1=Nc2ccccc2S(=O)(=O)N1 (stereo not shown) [Example 157] | 8.8 | > 125 | 22.3 | > 125 | – | – | –
27 | O=C(NCC(c1cccc(-c2ccccc2)c1)c1ncco1)C1=Nc2ccccc2S(=O)(=O)N1 (stereo not shown) [Example 158] | 1.73 | 30.7 | 5.46 | 26.8 | – | – | –
28 | O=C(NCC(c1cccc(I)c1)c1ncco1)C1=Nc2ccccc2S(=O)(=O)N1 (stereo not shown) [Example 160, N-(2-(3-iodophenyl)-2-(oxazol-2-yl)ethyl)-2H-benzo[e][1,2,4]thiadiazine-3-carboxamide 1,1-dioxide] | 0.471 | 4.89 | 1.66 | 13.2 | – | – | –
29 | O=C(NCC(c1ncco1)c1ccccc1-c1ccccc1)C1=Nc2ccccc2S(=O)(=O)N1 (stereo not shown) [Example 161] | 0.269 | 23 | 4.39 | 9.16 | – | – | –
30 | CC(CNC(=O)C1=Nc2ccccc2S(=O)(=O)N1)(c1ccccc1)c1ccccc1 [Example 206] | 1.39 | – | 1.21 | 13.7 | 36.8 | 9.64 | 7.17
31 | N#Cc1cccc(C(CNC(=O)C2=Nc3ccccc3S(=O)(=O)N2)c2ncco2)c1 (stereo not shown) [Example 227, N-(2-(3-Cyanophenyl)-2-(oxazol-2-yl)ethyl)-2H-benzo[e][1,2,4]thiadiazine-3-carboxamide 1,1-dioxide] | 1.36 | > 125 | 4.49 | 98.7 | – | – | –
32 | O=C(NCC(F)(F)c1ccccc1OC(F)F)C1=Nc2ccc(Cl)cc2S(=O)(=O)N1 [Example 232, 7-chloro-N-(2-(2-(difluoromethoxy)phenyl)-2,2-difluoroethyl)-2H-benzo[e][1,2,4]thiadiazine-3-carboxamide 1,1-dioxide] | 0.252 | 35 | 0.393 | 2.74 | – | – | –

Reference: patent US20210380548A1, “Fused [1,2,4]Thiadiazine Derivatives Which Act as KAT Inhibitors of the MYST Family” (CTxT Pty Limited, priority 2017, published 2021)
